In patent US20250009841A1, “Methods of Diagnosing and Managing Bleeding Disorders” (Emory University, priority 2023, published 2025):

B1: abciximab (antibody, chains of the INN, looked up, V domains shown)
VH: EVQLQQSGTVLARPGASVKMSCEASGYTFTNYWMHWVKQRPGQGLEWIGAIYPGNSDTSYIQKFKGKAKLTAVTSTTSVYMELSSLTNEDSAVYYCTLYDGYYVFAYWGQGTLVTVSA
VL: EIVLTQSPVTLSVTPGDSVSLSCRASRDISNNLHWFQQTSHESPRLLIKYASQSMSGIPSRFSGSGSGTDFTLSINSVETEDFGMYFCQQTNSWPYTFGGGTKLEIK

System: healthy donor platelets
Assay: Monoclonal antibody contraction experiments on the platelet contraction cytometer
Assay type: cell-based, human
Settings: 2.5 μg/mL monoclonal antibody
Procedure: Blood was drawn into acid-citrate-dextrose (ACD) solution 2 (VWR) and was subsequently centrifuged at 150 G for 15 min without brake and the resulting platelet rich plasma (PRP) was centrifuged again with an additional 10% ACD by volume at 900 G for 5 min without brake. The supernatant, platelet poor plasma, was discarded or utilized to isolate patient polyclonal IgG antibodies. The platelet pellet was resuspended into HEPES modified buffer and was gel filtered into this same buffer using a gel filtration column. Platelets were then diluted to 2 million/mL prior to contraction cytometry to reduce paracrine signaling and minimize platelet aggregate formation.
Each contraction cytometer contains large arrays of fibrinogen microdots pairs that are patterned onto a polyacrylamide hydrogel with a stiffness of about 75 k Pa. […] These values for microdot size and spacing ensured that platelets preferentially attached to the microdots and were able to spread to neighboring microdot in the microdot pair and contract. […]
Platelet contraction was imaged on a confocal microscope using a 20×/0.8 NA lens. […] Images were analyzed using a script which calculated the center-to-center distance between fibrinogen microdots. […] Traction forces (T) of individual platelets were calculated as: T=2πGa (xs−xf)/2−v. […]

| Molecule | effect on platelet contractile force (15 minutes prior to thrombin activation) | effect on platelet adhesion (fibrinogen microdots) |
| --- | --- | --- |
| PAC-1 | lowers contractile forces | – |
| B1 | – | blocks adhesion |
